Laboratory results as given in paper PMC12703733, “Probing Guanidino Pendant or Bridged Groups in Cyclic Antimicrobial Peptides Derived from Temporin L: A Strategy to Improve Efficacy against Gram-Negative Bacteria” (Journal of Medicinal Chemistry, 2025).
Values after ≈ are worked out from the molar mass of the structure shown. Read-outs that look alike come from different tables or passages of the source. Bridge positions count the residues as written; N and C are the ends. Square brackets hold non-standard residues; d marks the D form. Peptide text beside a SMILES is read from it. * marks the point of attachment. Pro(cis-4-guanidino) = NC(N)=N[C@@H]1CN[C@H](C(=O)O)C1; Propanoyl(3-guanidino) = N=C(N)NCCC(=O)*

How the values were obtained:
B. megaterium BM11 = experiment: microbe, parasite or virus in culture; assay type: cell-based; settings: BM11
Method: (§1) Bacterial strains used in this study were the Gram-positive S. aureus ATCC 25923, S. epidermidis ATCC 12228, B. megaterium BM11, S. [NT] 27591, E. faecalis ATCC 29212 and the Gram-negative E. coli ATCC 25922, P. aeruginosa ATCC 27853, A. baumannii ATCC 19606, E. coli D21 and P. aeruginosa PAO1. […] Bacterial cells in the mid log phase were diluted in Muller Hinton (MH) at a concentration of 2 × 10^6 cell/mL. […] Ciprofloxacin was used as antibiotic control. The plate was then incubated at 37 °C. MICs were obtained from three identical readings of four independent experiments.

S. aureus ATCC 25923 = experiment: microbe, parasite or virus in culture; assay type: cell-based; settings: ATCC 25923
Method: as §1

E. coli ATCC 25922 = experiment: microbe, parasite or virus in culture; assay type: cell-based; settings: ATCC 25922
Method: as §1

S. agalactiae ATCC 27591 = experiment: microbe, parasite or virus in culture; assay type: cell-based; settings: ATCC 27591
Method: as §1

[1] = test system: S. epidermidis ATCC 12228; experiment: microbe, parasite or virus in culture; assay type: cell-based; settings: ATCC 12228
Method: as §1

E. coli D21 = experiment: microbe, parasite or virus in culture; assay type: cell-based; settings: D21
Method: as §1

E. faecalis ATCC 29212 = experiment: microbe, parasite or virus in culture; assay type: cell-based; settings: ATCC 29212
Method: as §1

A. baumannii ATCC 19606 = experiment: microbe, parasite or virus in culture; assay type: cell-based; settings: ATCC 19606
Method: as §1

P. aeruginosa ATCC 27853 = experiment: microbe, parasite or virus in culture; assay type: cell-based; settings: ATCC 27853
Method: as §1

[2] = assay type: cell-based, human; settings: human; for viability at 2 h, 3.12 µM / viability at 2 h, 6.25 µM / viability at 2 h, 12.5 µM / viability at 2 h, 25 µM / viability at 2 h, 50 µM / viability at 2 h, 100 µM / viability at 24 h, 3.12 µM / viability at 24 h, 6.25 µM / viability at 24 h, 12.5 µM / viability at 24 h, 25 µM / viability at 24 h, 50 µM / viability at 24 h, 100 µM: Cell viability (%)
Method: (§2) For the evaluation of peptides’ cytotoxicity, the human immortalized keratinocytes (HaCaT cells), purchased from AddexBio (San Diego, CA, USA), and BEAS-2B were used. HaCaT cells were cultured in Dulbecco’s modified Eagle’s medium supplemented with 4 mM glutamine (DMEM), 10% heat-inactivated fetal bovine serum (FBS), and 0.1 mg/mL of penicillin and streptomycin, at 37 °C and 5% CO2. BEAS-2B cells were cultured in RPMI, supplemented with 2 mM glutamine (DMEM), 10% heat-inactivated fetal bovine serum (FBS), 1 mM sodium pyruvate, and 0.1 mg/mL of penicillin and streptomycin, at 37 °C and 5% CO2. Cytotoxicity was tested in vitro using a colorimetric assay that relies on the intracellular reduction of the yellow 3-(4,5-dimethylthiazol-2-yl)-2,5-diphenyltetrazolium bromide salt (MTT) by mitochondrial dehydrogenases of metabolically active cells in formazan crystals (purple). About 4 × 10^4 HaCaT and BEAS-2B cells, suspended in DMEM supplemented with 2% FBS, were plated in triplicate wells of a 96-well microtiter plate. The plate was incubated overnight at 37 °C and 5% CO2. Then, the cells were treated with different concentrations of the peptide (from 100 to 3.12 μM) in a fresh serum-free medium for 2 h and for a longer time (24 h). Following peptide treatment, the medium was removed, and MTT (0.5 mg/mL) solution in Hank’s buffer (136 mM NaCl, 4.2 mM Na2HPO4, 4.4 mM KH2PO4, 5.4 mM KCl, 4.1 mM NaHCO3, pH 7.2, supplemented with 20 mM D-glucose) was added to each well of the plate, that was then incubated for 4 h at 37 °C and 5% CO2. The purple formazan crystals were dissolved using acidified 2-propanol and a microplate reader (Infinite M200; Tecan, Salzburg, Austria) was used to measure the absorbance of each well at 570 nm. The percentage of cell viability was calculated compared to the control, which consisted of cells without any peptide treatment (corresponding to 100% viability) and all data represent the mean of three independent experiments ± SEM.

circular dichroism = settings: water; pH ns; 25 °C; 150 uM
[3] = assay type: cell-based
Method: as §2

in vitro = in vitro ADME
Method: Peptide stability was evaluated by modifying previously described procedures. , The assays were performed in human serum and in the presence of proteolytic enzymes such as trypsin and chymotrypsin. For human serum stability, 2 mM peptide stock solutions were prepared in water and mixed with human serum (from male AB plasma, USA origin, sterile-filtered, Merck/Sigma-Aldrich, USA) to obtain a final concentration of 200 μM [human plasma/stock solution (9:1, v/v)]. The mixtures were incubated at 37 ± 1 °C, and 50 μL aliquots were taken at predetermined time intervals (0, 1, 2, 4, 8, and 24 h). Protease activity was quenched by adding 100 μL of acetonitrile (MeCN). The resulting cloudy suspensions were cooled to 4 °C for 30 min and centrifugated at 12,000 rpm for 10 min to remove the serum proteins. Then, the supernatants were analyzed by analytical HPLC (Shimadzu Nexera Liquid Chromatograph LC-30AD) which was equipped with a Phenomenex Kinetex reversed-phase column (C18, 5 μm, 100 Å, 150 mm × 4.6 mm) with a flow rate of 1 mL/min using a gradient of MeCN (0.1% TFA) in water (0.1% TFA), from 10 to 70% over 15 min, and UV detection at 220 nm. For enzyme stability, each peptide peptide (200 μM) was incubated with trypsin (0.5 μM) in PBS 1× (pH 7.2) or with chymotrypsin (0.005 μM) in Tris–HCl (100 mM, pH 7.8). Samples (50 μL) were collected at 0, 1, 2, 4, and 24 h, quenched with 0.5% TFA in water, and analyzed by HPLC under chromatographic conditions as described above. All experiments were conducted in triplicate. The percentage of intact peptides at each time point was determined by integrating the corresponding HPLC peak areas.

P. aeruginosa PAO1 = experiment: microbe, parasite or virus in culture; assay type: cell-based; settings: PAO1
Method: as §1

MIC (B. megaterium BM11) [µM]	MIC (S. aureus ATCC 25923) [µM]	MIC (E. coli ATCC 25922) [µM]	MIC (S. agalactiae ATCC 27591) [µM]	MIC [1] [µM]	MIC (E. coli D21) [µM]	MIC (E. faecalis ATCC 29212) [µM]	MIC (A. baumannii ATCC 19606) [µM]	MIC (P. aeruginosa ATCC 27853) [µM]	Compound	CC50 at 24 h [2] [µM]	viability at 2 h, 3.12 µM [2] [%]	viability at 2 h, 6.25 µM [2] [%]	viability at 2 h, 12.5 µM [2] [%]	viability at 2 h, 25 µM [2] [%]	viability at 2 h, 50 µM [2] [%]	viability at 2 h, 100 µM [2] [%]	viability at 24 h, 3.12 µM [2] [%]	viability at 24 h, 6.25 µM [2] [%]	viability at 24 h, 12.5 µM [2] [%]	viability at 24 h, 25 µM [2] [%]	also measured
0.78 (≈ 1.37 µg/mL)	6.25 (≈ 11 µg/mL)	3.12 (≈ 5.49 µg/mL)	1.56 (≈ 2.75 µg/mL)	3.12 (≈ 5.49 µg/mL)	3.12 (≈ 5.49 µg/mL)	12.5 (≈ 22 µg/mL)	3.12 (≈ 5.49 µg/mL)	12.5 (≈ 22 µg/mL)	CC[C@H](C)[C@H](NC(=O)[C@H](CCCNC(=N)N)NC(=O)[C@H]1CCC(=O)NCCCC[C@H](NC(=O)[C@H](Cc2ccccc2)NC(=O)[C@H](Cc2c[nH]c3ccccc23)NC(=O)[C@@H]2C[C@H](NC(=N)N)CN2C(=O)[C@@H](NC(=O)[C@@H](N)Cc2ccccc2)C(C)C)C(=O)N[C@@H](CCCCN)C(=O)N[C@@H](Cc2ccccc2)C(=O)N[C@H](CC(C)C)C(=O)N1)C(=O)N[C@@H](CC(C)C)C(N)=O [Peptide 7, FV(4-guanidino)PWF[KKFle]RIL] (H-FV[Pro(cis-4-guanidino)]WFKKF[dL][dE]RIL-NH2; lactam 6-10)	37	101	100	102	72	16	8	99 ± 5	98 ± 1	95 ± 4	85 ± 2	viability at 24 h, 50 µM [2]: 18 ± 3%; viability at 24 h, 100 µM [2]: 2 ± 1%; helicity (circular dichroism): 1%; viability at 2 h, 3.12 µM ([3]; Cell viability (%)): 105%; viability at 2 h, 6.25 µM ([3]; Cell viability (%)): 117%; viability at 2 h, 12.5 µM ([3]; Cell viability (%)): 80%; viability at 2 h, 25 µM ([3]; Cell viability (%)): 28%; viability at 2 h, 50 µM ([3]; Cell viability (%)): 6%; viability at 24 h, 3.12 µM ([3]; Cell viability (%)): 111%; viability at 24 h, 6.25 µM ([3]; Cell viability (%)): 104%; viability at 24 h, 12.5 µM ([3]; Cell viability (%)): 90%; viability at 24 h, 25 µM ([3]; Cell viability (%)): 34%; viability at 24 h, 50 µM ([3]; Cell viability (%)): 9%; viability at 24 h, 100 µM ([3]; Cell viability (%)): 4%; viability at 12.5 µM ([3]; cell viability): ~85%; remaining at 4 h, 200 μM (in vitro; isolated enzyme chymotrypsin, pH 7.8): ~20%; remaining at 4 h, 200 μM (in vitro; isolated enzyme trypsin, pH 7.2): 10%
0.78 (≈ 1.42 µg/mL)	3.12 (≈ 5.67 µg/mL)	3.12 (≈ 5.67 µg/mL)	1.56 (≈ 2.83 µg/mL)	1.56 (≈ 2.83 µg/mL)	6.25 (≈ 11.4 µg/mL)	6.25 (≈ 11.4 µg/mL)	3.12 (≈ 5.67 µg/mL)	25 (≈ 45.4 µg/mL)	CC[C@H](C)[C@H](NC(=O)[C@H](CCCNC(=N)N)NC(=O)[C@H]1CCC(=O)NCCCC[C@H](NC(=O)[C@H](Cc2ccccc2)NC(=O)[C@H](Cc2c[nH]c3ccccc23)NC(=O)[C@@H]2CCCN2C(=O)[C@@H](NC(=O)[C@H](Cc2ccccc2)NC(=O)CCNC(=N)N)C(C)C)C(=O)N[C@@H](CCCCN)C(=O)N[C@@H](Cc2ccccc2)C(=O)N[C@H](CC(C)C)C(=O)N1)C(=O)N[C@@H](CC(C)C)C(N)=O [Peptide 4, guanidino-βAla-FVPWF[KKFle]RIL] ({Propanoyl(3-guanidino)}-FVPWFKKF[dL][dE]RIL-NH2; lactam 6-10)	19.4	100	100	100	47	7	8	98 ± 1	93 ± 2	88 ± 4	21 ± 3	MIC (P. aeruginosa PAO1): 25 µM (≈ 45.4 µg/mL); viability at 24 h, 50 µM [2]: 0%; viability at 24 h, 100 µM [2]: 0%; helicity (circular dichroism): 12%
